Read-outs that look alike come from different tables or passages of the source.
Experiments:
Assay in all cases: biochemical
Set-up in all cases: Eurofins KinaseProfiler full panel at Km ATP, residual kinase activity (%) relative to DMSO
[1] = target: T1, LKB1(h) (Homo sapiens, UniProt Q15831)
T1 construct: gene STK11
T1 sequence (Q15831 1-433): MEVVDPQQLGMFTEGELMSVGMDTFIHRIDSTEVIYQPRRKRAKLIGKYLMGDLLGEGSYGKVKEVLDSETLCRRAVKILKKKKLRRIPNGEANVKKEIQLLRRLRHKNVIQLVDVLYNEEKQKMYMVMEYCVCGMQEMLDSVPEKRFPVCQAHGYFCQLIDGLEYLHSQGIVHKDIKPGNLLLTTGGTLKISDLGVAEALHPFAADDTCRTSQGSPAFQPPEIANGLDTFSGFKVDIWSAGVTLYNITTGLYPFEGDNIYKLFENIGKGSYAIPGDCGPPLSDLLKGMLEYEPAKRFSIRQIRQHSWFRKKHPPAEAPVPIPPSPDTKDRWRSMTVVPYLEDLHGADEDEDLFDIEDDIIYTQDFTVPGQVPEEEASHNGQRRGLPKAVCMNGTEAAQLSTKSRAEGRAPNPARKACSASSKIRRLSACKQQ
T1 sequence (Q7RTN6 1-431 partner): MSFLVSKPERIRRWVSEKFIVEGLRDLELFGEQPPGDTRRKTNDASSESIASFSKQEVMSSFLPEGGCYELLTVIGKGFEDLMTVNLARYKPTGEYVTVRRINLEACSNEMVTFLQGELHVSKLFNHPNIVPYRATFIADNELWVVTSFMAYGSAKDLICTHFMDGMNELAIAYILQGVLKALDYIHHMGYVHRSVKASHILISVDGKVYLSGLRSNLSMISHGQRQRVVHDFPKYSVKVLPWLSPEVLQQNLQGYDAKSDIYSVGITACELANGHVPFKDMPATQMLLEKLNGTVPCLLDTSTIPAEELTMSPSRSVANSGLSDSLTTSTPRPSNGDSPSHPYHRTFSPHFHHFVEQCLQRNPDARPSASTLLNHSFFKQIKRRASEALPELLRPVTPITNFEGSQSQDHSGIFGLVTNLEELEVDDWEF
T1 sequence (Q9Y376 1-341 partner): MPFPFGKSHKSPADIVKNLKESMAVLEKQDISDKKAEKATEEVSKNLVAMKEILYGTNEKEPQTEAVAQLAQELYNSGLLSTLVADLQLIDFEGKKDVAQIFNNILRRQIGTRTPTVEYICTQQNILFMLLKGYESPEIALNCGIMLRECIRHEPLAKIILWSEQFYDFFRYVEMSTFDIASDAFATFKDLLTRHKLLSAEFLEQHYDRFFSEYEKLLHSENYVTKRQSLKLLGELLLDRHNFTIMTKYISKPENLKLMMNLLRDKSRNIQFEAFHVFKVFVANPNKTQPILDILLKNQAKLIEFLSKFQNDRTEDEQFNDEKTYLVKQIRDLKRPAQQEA
Summary of the method: (§1)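 Two 10 µM single-concentration screens were run: a competition-binding screen, in which DNA-tagged kinase bound to immobilized ligands was quantified by qPCR, and a radiometric activity panel at Km ATP. Each is expressed as residual kinase activity (%).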

[2] = target: T2, MEKK3(h) (Homo sapiens, UniProt Q99759)
T2 construct: gene MAP3K3
T2 sequence (Q99759 1-626): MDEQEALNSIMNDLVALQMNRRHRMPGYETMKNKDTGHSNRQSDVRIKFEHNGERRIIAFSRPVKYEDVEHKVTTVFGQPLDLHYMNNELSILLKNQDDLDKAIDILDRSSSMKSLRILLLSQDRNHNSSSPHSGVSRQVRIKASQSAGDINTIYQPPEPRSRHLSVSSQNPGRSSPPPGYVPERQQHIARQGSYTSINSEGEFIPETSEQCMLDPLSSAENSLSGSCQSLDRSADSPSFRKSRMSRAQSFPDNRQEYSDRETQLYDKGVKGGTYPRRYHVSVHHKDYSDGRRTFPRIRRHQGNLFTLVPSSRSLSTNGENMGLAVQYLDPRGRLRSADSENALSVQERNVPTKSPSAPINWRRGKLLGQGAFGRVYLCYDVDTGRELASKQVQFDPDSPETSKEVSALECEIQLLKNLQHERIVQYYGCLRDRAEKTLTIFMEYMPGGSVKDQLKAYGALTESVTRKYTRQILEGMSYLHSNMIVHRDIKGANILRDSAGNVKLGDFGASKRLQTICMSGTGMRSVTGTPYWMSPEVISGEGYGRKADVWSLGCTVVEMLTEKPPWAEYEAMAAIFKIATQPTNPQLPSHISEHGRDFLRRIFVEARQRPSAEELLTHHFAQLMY
Summary of the method: as §1

[3] = target: T3, Bmx(h) (Homo sapiens, UniProt P51813)
T3 sequence (P51813 1-675): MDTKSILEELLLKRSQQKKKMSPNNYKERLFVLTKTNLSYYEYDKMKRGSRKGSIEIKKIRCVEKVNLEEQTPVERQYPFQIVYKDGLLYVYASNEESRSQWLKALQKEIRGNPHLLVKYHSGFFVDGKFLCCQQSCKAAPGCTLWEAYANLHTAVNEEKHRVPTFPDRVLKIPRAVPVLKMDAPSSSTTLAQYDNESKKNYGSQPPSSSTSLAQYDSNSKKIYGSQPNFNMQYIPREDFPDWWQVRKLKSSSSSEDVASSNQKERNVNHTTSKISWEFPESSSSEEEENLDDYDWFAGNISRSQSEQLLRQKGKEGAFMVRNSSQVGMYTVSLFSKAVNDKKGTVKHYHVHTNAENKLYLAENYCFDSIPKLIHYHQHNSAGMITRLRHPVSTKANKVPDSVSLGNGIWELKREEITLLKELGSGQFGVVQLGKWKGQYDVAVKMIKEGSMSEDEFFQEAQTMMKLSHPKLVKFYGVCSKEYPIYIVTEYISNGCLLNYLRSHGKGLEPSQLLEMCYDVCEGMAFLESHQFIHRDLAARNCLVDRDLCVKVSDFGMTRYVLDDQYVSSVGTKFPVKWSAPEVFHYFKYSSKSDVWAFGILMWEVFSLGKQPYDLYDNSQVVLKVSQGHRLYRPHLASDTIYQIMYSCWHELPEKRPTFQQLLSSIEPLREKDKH
Summary of the method: as §1

[4] = read-out: Residual activity (%) 5ay
[5] = read-out: Residual activity (%) Spautin-1 5aa
[6] = read-out: Residual activity (%) 5at
[7] = read-out: Residual activity (%) 5as

With `COc1ccc2ncnc(Nc3cccc(F)c3)c2c1` [5ay, N-(3-Fluorophenyl)-6-Methoxy-4-Quinazolinamine] the remaining activity at 10 µM [1, 4] was 100%, the remaining activity at 10 µM [2, 4] was 83% and the remaining activity at 10 µM [3, 4] was 77%.
In the case of `Fc1ccc(CNc2ncnc3ccc(F)cc23)cc1` [5aa, 6-Fluoro-N-(4-fluorobenzyl)-4-Quinazolinamine], the remaining activity at 10 µM [1, 5] is reported as 86%, the remaining activity at 10 µM [2, 5] is reported as 93% and the remaining activity at 10 µM [3, 5] is reported as 79%.
`Fc1ccc2ncnc(NCCc3ccc(Cl)cc3)c2c1` [5at, N-[2-(4-Chlorophenyl)Ethyl]-6-Fluoro-4-Quinazolinamine] showed a remaining activity at 10 µM [1, 6] of 73%, a remaining activity at 10 µM [2, 6] of 98% and a remaining activity at 10 µM [3, 6] of 78%.
`Fc1ccc(CCNc2ncnc3ccc(F)cc23)cc1` [5as, 6-Fluoro-N-[2-(4-Fluorophenyl)Ethyl]-4-Quinazolinamine] gave a remaining activity at 10 µM [1, 7] of 81%, a remaining activity at 10 µM [2, 7] of 107% and a remaining activity at 10 µM [3, 7] of 78%.
